Laboratory results as given in article PMC5428509, “Irreversible inhibition of BTK kinase by a novel highly selective inhibitor CHMFL-BTK-11 suppresses inflammatory response in rheumatoid arthritis model” (Scientific Reports, 2017).

Legend:
Assay in all cases: biochemical
Design in all cases: KinomeScan competition binding panel (DiscoveRx), percent of control at 1 uM
Settings in all cases: read-out: Percent Control
EGFR(L747-T751del,Sins) = EGFR(L747-T751del,Sins) (Homo sapiens, UniProt P00533, DEL747-750/T751S)
From the text: (§1) In order to further confirm the binding mode, we then tested the compounds in the BTK wild-type (wt) and BTK C481S mutant with immunoblotting by looking at the BTK Y551 auto-phosphorylation. […] In addition, a covalent bond was preferred to form between the […] acrylamide and Cys-481 near the hinge binding area, which further confirmed its irreversible binding mode (Fig. 1d). We next investigated CHMFL-BTK-11′s selectivity profile in 456 kinases/mutants with KinomeScan^TM technology.

PAK1 = PAK1 (Homo sapiens, UniProt Q13153)
From the text: as §1

MLCK = biological target: T1, MLCK (Homo sapiens, UniProt Q32MK0)
T1 construct: gene MYLK3
From the text: as §1

GAK = GAK (Homo sapiens, UniProt O14976)
From the text: as §1

BLK = BLK (Homo sapiens, UniProt P51451)
From the text: as §1

S6K1 = biological target: T2, S6K1 (Homo sapiens, UniProt P23443)
T2 construct: gene RPS6KB1
From the text: as §1

PIK4CB = biological target: T3, PIK4CB (Homo sapiens, UniProt Q9UBF8)
T3 construct: gene PI4KB
From the text: as §1

[1] = biological target: T4, RSK1(Kin.Dom.2-C-terminal) (Homo sapiens, UniProt Q15418)
T4 construct: gene RPS6KA1; Kin.Dom.2-C-terminal
From the text: as §1

RIPK2 = RIPK2 (Homo sapiens, UniProt O43353)
From the text: as §1

CDK9 = CDK9 (Homo sapiens, UniProt P50750)
From the text: as §1

MAP3K2 = MAP3K2 (Homo sapiens, UniProt Q9Y2U5)
From the text: as §1

EIF2AK1 = EIF2AK1 (Homo sapiens, UniProt Q9BQI3)
From the text: as §1

ALK(L1196M) = ALK(L1196M) (Homo sapiens, UniProt Q9UM73, L1196M)
From the text: as §1

MAP4K3 = MAP4K3 (Homo sapiens, UniProt Q8IVH8)
From the text: as §1

STK36 = STK36 (Homo sapiens, UniProt Q9NRP7)
From the text: as §1

CDKL2 = CDKL2 (Homo sapiens, UniProt Q92772)
From the text: as §1

LRRK2 = LRRK2 (Homo sapiens, UniProt Q5S007)
From the text: as §1

DCAMKL3 = biological target: T5, DCAMKL3 (Homo sapiens, UniProt Q9C098)
T5 construct: gene DCLK3
From the text: as §1

EGFR(L858R) = EGFR(L858R) (Homo sapiens, UniProt P00533, L858R)
From the text: as §1

HIPK2 = HIPK2 (Homo sapiens, UniProt Q9H2X6)
From the text: as §1

FGFR2 = FGFR2 (Homo sapiens, UniProt P21802)
From the text: as §1

[2] = biological target: T6, ABL1(E255K)-phosphorylated (Homo sapiens, UniProt P00519, E255K)
T6 construct: phosphorylated
From the text: as §1

EPHB6 = EPHB6 (Homo sapiens, UniProt O15197)
From the text: as §1

DMPK = DMPK (Homo sapiens, UniProt Q09013)
From the text: as §1

PRKCH = PRKCH (Homo sapiens, UniProt P24723)
From the text: as §1

Sequence of PRKCH (P24723 whole entry): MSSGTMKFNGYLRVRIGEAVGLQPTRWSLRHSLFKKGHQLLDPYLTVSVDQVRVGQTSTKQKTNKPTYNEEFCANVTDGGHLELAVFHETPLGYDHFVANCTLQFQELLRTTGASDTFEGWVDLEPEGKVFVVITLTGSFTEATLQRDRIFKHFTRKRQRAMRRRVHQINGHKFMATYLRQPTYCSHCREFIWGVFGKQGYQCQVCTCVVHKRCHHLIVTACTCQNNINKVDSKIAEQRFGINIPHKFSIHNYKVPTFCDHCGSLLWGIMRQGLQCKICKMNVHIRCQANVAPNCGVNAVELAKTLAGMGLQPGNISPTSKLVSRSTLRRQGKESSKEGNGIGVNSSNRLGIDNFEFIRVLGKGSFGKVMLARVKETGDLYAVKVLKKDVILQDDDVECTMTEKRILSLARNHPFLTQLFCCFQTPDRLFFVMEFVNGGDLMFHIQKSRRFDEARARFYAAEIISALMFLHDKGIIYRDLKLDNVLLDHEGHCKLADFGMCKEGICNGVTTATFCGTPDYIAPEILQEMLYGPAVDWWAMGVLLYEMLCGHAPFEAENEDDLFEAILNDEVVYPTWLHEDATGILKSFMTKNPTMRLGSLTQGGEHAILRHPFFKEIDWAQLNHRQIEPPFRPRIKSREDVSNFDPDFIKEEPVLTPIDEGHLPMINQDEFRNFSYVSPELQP
Sequence of HIPK2 (Q9H2X6 whole entry): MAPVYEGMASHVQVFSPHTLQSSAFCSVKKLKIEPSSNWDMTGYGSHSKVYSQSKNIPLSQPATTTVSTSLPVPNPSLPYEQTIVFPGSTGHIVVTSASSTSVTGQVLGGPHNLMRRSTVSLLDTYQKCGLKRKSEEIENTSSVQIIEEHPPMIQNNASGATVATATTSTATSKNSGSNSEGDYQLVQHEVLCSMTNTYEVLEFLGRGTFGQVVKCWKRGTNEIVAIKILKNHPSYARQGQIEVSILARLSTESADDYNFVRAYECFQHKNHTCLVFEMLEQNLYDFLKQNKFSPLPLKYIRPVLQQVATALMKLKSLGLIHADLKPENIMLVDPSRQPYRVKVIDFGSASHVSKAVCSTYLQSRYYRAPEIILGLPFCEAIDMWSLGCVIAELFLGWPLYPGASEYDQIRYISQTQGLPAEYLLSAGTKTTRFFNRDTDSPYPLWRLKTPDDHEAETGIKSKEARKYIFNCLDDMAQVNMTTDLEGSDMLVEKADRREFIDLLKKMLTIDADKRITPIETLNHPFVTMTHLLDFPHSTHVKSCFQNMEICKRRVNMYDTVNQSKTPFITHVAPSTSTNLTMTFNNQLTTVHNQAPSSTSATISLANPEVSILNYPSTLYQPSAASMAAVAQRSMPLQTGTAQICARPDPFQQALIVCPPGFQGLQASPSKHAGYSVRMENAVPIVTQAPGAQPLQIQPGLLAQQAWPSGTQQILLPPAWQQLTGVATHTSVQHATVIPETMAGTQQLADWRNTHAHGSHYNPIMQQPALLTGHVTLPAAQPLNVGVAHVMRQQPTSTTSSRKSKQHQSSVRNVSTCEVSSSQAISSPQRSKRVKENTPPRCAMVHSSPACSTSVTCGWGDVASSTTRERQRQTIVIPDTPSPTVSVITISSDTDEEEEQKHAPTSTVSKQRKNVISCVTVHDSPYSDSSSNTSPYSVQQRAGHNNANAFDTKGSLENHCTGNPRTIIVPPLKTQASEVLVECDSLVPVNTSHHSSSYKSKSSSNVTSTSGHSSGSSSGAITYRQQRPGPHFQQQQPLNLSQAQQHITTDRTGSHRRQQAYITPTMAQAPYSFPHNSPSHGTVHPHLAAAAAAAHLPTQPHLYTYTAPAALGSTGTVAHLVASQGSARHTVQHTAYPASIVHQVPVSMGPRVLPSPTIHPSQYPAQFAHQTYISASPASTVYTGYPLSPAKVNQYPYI
Sequence of MAP3K2 (Q9Y2U5 whole entry): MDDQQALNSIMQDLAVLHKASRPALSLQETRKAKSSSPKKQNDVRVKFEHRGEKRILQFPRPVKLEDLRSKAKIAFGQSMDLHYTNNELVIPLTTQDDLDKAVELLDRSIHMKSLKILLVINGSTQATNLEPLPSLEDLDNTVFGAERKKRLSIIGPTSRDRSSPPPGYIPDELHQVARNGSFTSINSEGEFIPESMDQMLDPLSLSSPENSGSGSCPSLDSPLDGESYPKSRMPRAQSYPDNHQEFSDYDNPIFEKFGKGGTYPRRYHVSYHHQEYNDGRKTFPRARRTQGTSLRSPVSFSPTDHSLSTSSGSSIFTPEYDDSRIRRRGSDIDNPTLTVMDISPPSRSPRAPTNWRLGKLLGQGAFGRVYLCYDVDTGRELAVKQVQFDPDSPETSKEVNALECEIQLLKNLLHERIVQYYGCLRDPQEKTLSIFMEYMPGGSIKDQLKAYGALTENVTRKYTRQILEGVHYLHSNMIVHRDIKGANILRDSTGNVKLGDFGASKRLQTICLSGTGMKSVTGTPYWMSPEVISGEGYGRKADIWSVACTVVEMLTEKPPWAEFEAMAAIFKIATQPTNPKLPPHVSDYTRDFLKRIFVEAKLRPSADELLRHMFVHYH
Sequence of MAP4K3 (Q8IVH8 whole entry): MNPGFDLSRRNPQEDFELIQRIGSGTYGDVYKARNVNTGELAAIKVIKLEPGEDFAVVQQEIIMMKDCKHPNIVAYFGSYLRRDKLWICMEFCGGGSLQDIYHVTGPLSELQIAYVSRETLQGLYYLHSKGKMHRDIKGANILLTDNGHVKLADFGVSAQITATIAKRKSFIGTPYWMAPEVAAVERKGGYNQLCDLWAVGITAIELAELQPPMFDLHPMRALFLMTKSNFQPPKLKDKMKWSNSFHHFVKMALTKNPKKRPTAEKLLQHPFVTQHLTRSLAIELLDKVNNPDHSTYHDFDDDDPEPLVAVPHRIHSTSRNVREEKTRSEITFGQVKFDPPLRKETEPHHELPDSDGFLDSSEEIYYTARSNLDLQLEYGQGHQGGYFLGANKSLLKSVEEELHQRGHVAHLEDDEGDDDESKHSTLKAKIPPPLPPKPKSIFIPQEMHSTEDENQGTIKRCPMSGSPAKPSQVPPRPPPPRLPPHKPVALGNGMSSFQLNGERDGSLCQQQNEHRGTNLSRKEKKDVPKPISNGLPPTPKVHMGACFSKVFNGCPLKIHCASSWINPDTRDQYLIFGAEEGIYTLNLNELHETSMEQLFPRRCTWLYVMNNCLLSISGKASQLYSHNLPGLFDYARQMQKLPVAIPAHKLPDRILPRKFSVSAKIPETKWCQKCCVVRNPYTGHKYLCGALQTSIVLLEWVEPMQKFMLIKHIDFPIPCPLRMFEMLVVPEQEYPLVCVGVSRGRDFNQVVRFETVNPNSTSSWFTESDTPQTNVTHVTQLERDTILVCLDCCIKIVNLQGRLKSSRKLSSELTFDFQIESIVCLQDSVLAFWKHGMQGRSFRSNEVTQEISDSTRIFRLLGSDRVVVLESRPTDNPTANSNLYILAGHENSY
T6 sequence (P00519 whole entry E255K): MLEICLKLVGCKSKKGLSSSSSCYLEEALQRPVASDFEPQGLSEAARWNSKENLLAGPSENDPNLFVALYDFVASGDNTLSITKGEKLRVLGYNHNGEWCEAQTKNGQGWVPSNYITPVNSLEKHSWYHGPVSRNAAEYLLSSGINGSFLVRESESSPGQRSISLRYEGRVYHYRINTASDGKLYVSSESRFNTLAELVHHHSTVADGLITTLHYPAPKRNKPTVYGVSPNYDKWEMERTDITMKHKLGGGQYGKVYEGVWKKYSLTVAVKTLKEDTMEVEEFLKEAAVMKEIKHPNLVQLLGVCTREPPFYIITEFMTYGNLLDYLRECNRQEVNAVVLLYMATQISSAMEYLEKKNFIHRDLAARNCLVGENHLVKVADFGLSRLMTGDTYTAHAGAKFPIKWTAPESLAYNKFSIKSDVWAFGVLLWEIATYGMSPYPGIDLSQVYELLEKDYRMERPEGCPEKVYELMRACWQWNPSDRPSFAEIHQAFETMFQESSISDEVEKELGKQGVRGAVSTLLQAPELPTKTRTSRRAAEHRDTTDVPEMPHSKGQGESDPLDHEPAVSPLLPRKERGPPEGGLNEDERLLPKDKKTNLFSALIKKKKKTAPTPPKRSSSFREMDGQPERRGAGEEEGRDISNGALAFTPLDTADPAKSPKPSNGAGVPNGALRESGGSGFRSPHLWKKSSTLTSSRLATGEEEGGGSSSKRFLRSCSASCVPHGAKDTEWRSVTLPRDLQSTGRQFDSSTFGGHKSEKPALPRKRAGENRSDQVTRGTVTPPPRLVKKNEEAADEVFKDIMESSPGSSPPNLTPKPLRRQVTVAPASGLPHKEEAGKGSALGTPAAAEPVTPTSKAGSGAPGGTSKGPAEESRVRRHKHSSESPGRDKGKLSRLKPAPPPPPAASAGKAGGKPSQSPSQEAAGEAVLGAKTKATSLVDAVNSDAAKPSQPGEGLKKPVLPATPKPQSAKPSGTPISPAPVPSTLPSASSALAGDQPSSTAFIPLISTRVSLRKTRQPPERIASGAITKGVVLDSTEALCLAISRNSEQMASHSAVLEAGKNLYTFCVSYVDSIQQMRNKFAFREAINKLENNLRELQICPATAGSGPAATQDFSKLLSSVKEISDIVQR
T2 sequence (P23443 whole entry): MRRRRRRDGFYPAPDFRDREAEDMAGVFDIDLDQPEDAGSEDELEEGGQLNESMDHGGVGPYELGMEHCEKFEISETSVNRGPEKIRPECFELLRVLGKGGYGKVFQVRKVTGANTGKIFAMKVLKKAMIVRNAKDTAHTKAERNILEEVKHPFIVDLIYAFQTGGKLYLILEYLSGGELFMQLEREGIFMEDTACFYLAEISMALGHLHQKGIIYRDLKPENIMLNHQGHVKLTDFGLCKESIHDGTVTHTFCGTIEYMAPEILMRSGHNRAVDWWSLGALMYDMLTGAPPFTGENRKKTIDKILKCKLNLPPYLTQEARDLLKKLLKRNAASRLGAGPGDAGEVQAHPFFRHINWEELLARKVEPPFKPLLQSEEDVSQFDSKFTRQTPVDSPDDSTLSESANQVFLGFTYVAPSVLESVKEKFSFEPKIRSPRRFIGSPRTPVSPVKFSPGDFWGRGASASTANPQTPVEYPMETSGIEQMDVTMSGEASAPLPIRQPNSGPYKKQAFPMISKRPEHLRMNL

Q: With `C=CC(=O)Nc1cc(-n2c(=O)ccc3cnc4ccc(-n5cccn5)cc4c32)ccc1C` [CHMFL-BTK-11] as the compound, how does the remaining binding at 1 µM (EGFR(L747-T751del,Sins)) read?
A: 77%

Q: What about the remaining binding at 1 µM (PAK1) of the same compound?
A: 100%

Q: And the remaining binding at 1 µM (MLCK)?
A: 98%

Q: And the remaining binding at 1 µM (GAK)?
A: 100%

Q: And the remaining binding at 1 µM (BLK)?
A: 30%

Q: What about the remaining binding at 1 µM (S6K1) of the same compound?
A: 100%

Q: And the remaining binding at 1 µM (PIK4CB)?
A: 100%

Q: What about the remaining binding at 1 µM [1] of the same compound?
A: 100%

Q: What about the remaining binding at 1 µM (RIPK2) of the same compound?
A: 100%

Q: And the remaining binding at 1 µM (CDK9)?
A: 96%

Q: And the remaining binding at 1 µM (MAP3K2)?
A: 99%

Q: And the remaining binding at 1 µM (EIF2AK1)?
A: 92%

Q: What about the remaining binding at 1 µM (ALK(L1196M)) of the same compound?
A: 88%

Q: And the remaining binding at 1 µM (MAP4K3)?
A: 100%

Q: And the remaining binding at 1 µM (STK36)?
A: 97%

Q: What about the remaining binding at 1 µM (CDKL2) of the same compound?
A: 81%

Q: What about the remaining binding at 1 µM (LRRK2) of the same compound?
A: 96%

Q: And the remaining binding at 1 µM (DCAMKL3)?
A: 88%

Q: What about the remaining binding at 1 µM (EGFR(L858R)) of the same compound?
A: 70%

Q: What about the remaining binding at 1 µM (HIPK2) of the same compound?
A: 96%

Q: What about the remaining binding at 1 µM (FGFR2) of the same compound?
A: 88%

Q: What about the remaining binding at 1 µM [2] of the same compound?
A: 92%

Q: What about the remaining binding at 1 µM (EPHB6) of the same compound?
A: 87%

Q: What about the remaining binding at 1 µM (DMPK) of the same compound?
A: 100%

Q: And the remaining binding at 1 µM (PRKCH)?
A: 84%
